According to PubChem BioAssay (NCI):
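Assay format: 96-well plates, 48-hour exposure. Abbreviation: GI50, concentration required for 50% inhibition of growth. TGI marks complete inhibition of growth.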

Assays:
Assay in all cases: NCI tumour cell line growth inhibition, 48 h
[1] = test system: PC-3 prostate
[2] = test system: OVCAR-4 ovarian
[3] = test system: MALME-3M melanoma
[4] = test system: A549 NSCLC
[5] = test system: UACC-257 melanoma
[6] = test system: 786-0 renal
[7] = test system: OVCAR-8 ovarian
[8] = test system: M14 melanoma
[9] = test system: SR leukemia
[10] = test system: OVCAR-3 ovarian
[11] = test system: COLO 205 colon
[12] = test system: HCC-2998 colon
[13] = test system: HL-60(TB) leukemia
[14] = test system: NCI-H23 lung
[15] = test system: CCRF-CEM leukemia
[16] = test system: KM12 colon
[17] = test system: ACHN renal
[18] = test system: SN12C renal
[19] = test system: TK-10 renal
[20] = test system: HS 578T breast
[21] = test system: UO-31 renal
[22] = test system: HOP-62 NSCLC
[23] = test system: T-47D breast
[24] = test system: MDA-MB-435
[25] = test system: MCF7 breast
[26] = test system: MOLT-4 leukemia
[27] = test system: A498 renal
[28] = test system: HCT-15 colon
[29] = test system: IGROV1 ovarian
[30] = test system: DU-145 prostate
[31] = test system: U251 CNS
[32] = test system: MDA-MB-231 breast
[33] = test system: SK-MEL-2 melanoma
[34] = test system: SK-MEL-5 melanoma
[35] = test system: UACC-62 melanoma
[36] = test system: NCI-H226 lung
[37] = test system: HOP-92 NSCLC
[38] = test system: HCT-116 colon
[39] = test system: RXF 393 renal
[40] = test system: SW-620 colon
[41] = test system: K-562 leukemia
[42] = test system: HT29 colon
[43] = test system: SK-MEL-28 melanoma
[44] = test system: SK-OV-3 ovarian
[45] = test system: SF-268 CNS
[46] = test system: BT-549 breast
[47] = test system: RPMI-8226 leukemia
[48] = test system: NCI-H460 lung
[49] = test system: LOX IMVI melanoma
[50] = test system: NCI-H522 lung
[51] = test system: OVCAR-5 ovarian
[52] = test system: SF-539 CNS
[53] = test system: NCI/ADR-RES ovarian
[54] = test system: CAKI-1 renal
[55] = test system: SNB-19 CNS

Question: Which GI50 [1] does the source give for `CC(=Nc1ccccc1)C1=C(O)C(Cc2ccc(F)cc2)NC1=O` (stereo not given) here?
Answer: 0.894 µM

Question: What about the TGI [1] of the same compound?
Answer: > 100 µM

Question: And the GI50 [2]?
Answer: 14.4 µM

Question: And the TGI [2]?
Answer: > 100 µM

Question: What about the GI50 [3] of the same compound?
Answer: 0.661 µM

Question: And the TGI [3]?
Answer: > 100 µM

Question: What about the GI50 [4] of the same compound?
Answer: 0.675 µM

Question: And the TGI [4]?
Answer: > 100 µM

Question: And the GI50 [5]?
Answer: > 100 µM

Question: And the TGI [5]?
Answer: > 100 µM

Question: What about the GI50 [6] of the same compound?
Answer: 9.67 µM

Question: And the TGI [6]?
Answer: > 100 µM

Question: And the GI50 [7]?
Answer: 2.73 µM

Question: What about the TGI [7] of the same compound?
Answer: > 100 µM

Question: And the GI50 [8]?
Answer: 0.435 µM

Question: And the TGI [8]?
Answer: > 100 µM

Question: And the GI50 [9]?
Answer: 0.26 µM

Question: What about the TGI [9] of the same compound?
Answer: > 100 µM

Question: And the GI50 [10]?
Answer: 0.323 µM

Question: And the TGI [10]?
Answer: 1.2 µM

Question: And the GI50 [11]?
Answer: 0.421 µM

Question: And the TGI [11]?
Answer: 3.21 µM

Question: And the GI50 [12]?
Answer: 1.73 µM

Question: What about the TGI [12] of the same compound?
Answer: 40.1 µM

Question: What about the GI50 [13] of the same compound?
Answer: 0.287 µM

Question: What about the TGI [13] of the same compound?
Answer: > 100 µM

Question: And the GI50 [14]?
Answer: 1.71 µM

Question: And the TGI [14]?
Answer: > 100 µM

Question: What about the GI50 [15] of the same compound?
Answer: 1.81 µM

Question: What about the TGI [15] of the same compound?
Answer: > 100 µM

Question: What about the GI50 [16] of the same compound?
Answer: 0.4 µM

Question: And the TGI [16]?
Answer: > 100 µM

Question: And the GI50 [17]?
Answer: 8.24 µM

Question: What about the TGI [17] of the same compound?
Answer: > 100 µM

Question: What about the GI50 [18] of the same compound?
Answer: 5.76 µM

Question: What about the TGI [18] of the same compound?
Answer: > 100 µM

Question: What about the GI50 [19] of the same compound?
Answer: 2.1 µM

Question: And the TGI [19]?
Answer: > 100 µM

Question: And the GI50 [20]?
Answer: 2.44 µM

Question: And the TGI [20]?
Answer: > 100 µM

Question: And the GI50 [21]?
Answer: 5.42 µM

Question: What about the TGI [21] of the same compound?
Answer: > 100 µM

Question: And the GI50 [22]?
Answer: 0.959 µM

Question: What about the TGI [22] of the same compound?
Answer: > 100 µM

Question: And the GI50 [23]?
Answer: 0.793 µM

Question: And the TGI [23]?
Answer: > 100 µM

Question: What about the GI50 [24] of the same compound?
Answer: 0.16 µM

Question: And the TGI [24]?
Answer: 0.449 µM

Question: And the GI50 [25]?
Answer: 0.412 µM

Question: What about the TGI [25] of the same compound?
Answer: > 100 µM

Question: What about the GI50 [26] of the same compound?
Answer: 3.18 µM

Question: What about the TGI [26] of the same compound?
Answer: > 100 µM

Question: What about the GI50 [27] of the same compound?
Answer: 0.444 µM

Question: And the TGI [27]?
Answer: 5.04 µM

Question: What about the GI50 [28] of the same compound?
Answer: 0.488 µM

Question: And the TGI [28]?
Answer: > 100 µM

Question: What about the GI50 [29] of the same compound?
Answer: 1.71 µM

Question: And the TGI [29]?
Answer: > 100 µM

Question: And the GI50 [30]?
Answer: 2.12 µM

Question: What about the TGI [30] of the same compound?
Answer: > 100 µM

Question: What about the GI50 [31] of the same compound?
Answer: 0.825 µM

Question: What about the TGI [31] of the same compound?
Answer: > 100 µM

Question: What about the GI50 [32] of the same compound?
Answer: 1.7 µM

Question: What about the TGI [32] of the same compound?
Answer: > 100 µM

Question: And the GI50 [33]?
Answer: 0.423 µM

Question: What about the TGI [33] of the same compound?
Answer: > 100 µM

Question: And the GI50 [34]?
Answer: 0.472 µM

Question: And the TGI [34]?
Answer: > 100 µM

Question: And the GI50 [35]?
Answer: 0.664 µM

Question: And the TGI [35]?
Answer: > 100 µM

Question: And the GI50 [36]?
Answer: 39.5 µM

Question: And the TGI [36]?
Answer: > 100 µM

Question: And the GI50 [37]?
Answer: 0.327 µM

Question: What about the TGI [37] of the same compound?
Answer: > 100 µM

Question: What about the GI50 [38] of the same compound?
Answer: 0.49 µM

Question: What about the TGI [38] of the same compound?
Answer: > 100 µM

Question: What about the GI50 [39] of the same compound?
Answer: 0.339 µM

Question: What about the TGI [39] of the same compound?
Answer: 1.74 µM

Question: What about the GI50 [40] of the same compound?
Answer: 0.432 µM

Question: And the TGI [40]?
Answer: > 100 µM

Question: And the GI50 [41]?
Answer: 0.343 µM

Question: What about the TGI [41] of the same compound?
Answer: > 100 µM

Question: And the GI50 [42]?
Answer: 0.339 µM

Question: And the TGI [42]?
Answer: > 100 µM

Question: And the GI50 [43]?
Answer: 2.63 µM

Question: And the TGI [43]?
Answer: > 100 µM

Question: What about the GI50 [44] of the same compound?
Answer: 1.23 µM

Question: What about the TGI [44] of the same compound?
Answer: 9.01 µM

Question: What about the GI50 [45] of the same compound?
Answer: 4.45 µM

Question: What about the TGI [45] of the same compound?
Answer: > 100 µM

Question: And the GI50 [46]?
Answer: 0.879 µM

Question: What about the TGI [46] of the same compound?
Answer: > 100 µM

Question: What about the GI50 [47] of the same compound?
Answer: 0.859 µM

Question: What about the TGI [47] of the same compound?
Answer: > 100 µM

Question: And the GI50 [48]?
Answer: 0.44 µM

Question: And the TGI [48]?
Answer: > 100 µM

Question: What about the GI50 [49] of the same compound?
Answer: 0.619 µM

Question: And the TGI [49]?
Answer: > 100 µM

Question: What about the GI50 [50] of the same compound?
Answer: 0.237 µM

Question: What about the TGI [50] of the same compound?
Answer: 2.1 µM

Question: What about the GI50 [51] of the same compound?
Answer: 5.21 µM

Question: And the TGI [51]?
Answer: > 100 µM

Question: What about the GI50 [52] of the same compound?
Answer: 1.36 µM

Question: What about the TGI [52] of the same compound?
Answer: 12.1 µM

Question: What about the GI50 [53] of the same compound?
Answer: 0.42 µM

Question: What about the TGI [53] of the same compound?
Answer: 13.8 µM

Question: What about the GI50 [54] of the same compound?
Answer: 2.9 µM

Question: What about the TGI [54] of the same compound?
Answer: > 100 µM

Question: And the GI50 [55]?
Answer: 4.75 µM

Question: What about the TGI [55] of the same compound?
Answer: > 100 µM
